Results reported in ChEMBL document CHEMBL6177982, “Structural Optimization of Pyrazole Compounds as Hsp90 Regulators with Enhanced Antitumor Activity” (J Med Chem, 2025).
Activity calls are given as the source filed them. The rule behind the calls is not given here.

What was measured:
[1] = Clearance in male Sprague-Dawley rat at 5 mg/kg, ip by LC-MS/MS analysis; type: ADME, organism-based; conditions: in vivo
[2] = molecular target: T1, Heat shock protein HSP90 (Homo sapiens) (UniProt P07900+P08238); experiment: Induction of thermal stabilization of HSP90 in human HCT-116 cells at 10 uM at 53 to 55 degreeC by CETSA based Western blot analysis; type: cell-based
HCT-116 [3] = experiment: Inhibition of Myc-tagged HSP90 (unknown origin)/AKT(unknown origin) protein-protein interaction transfected in human HCT-116 cells at 1 to 5 uM incubated for 12 hrs by co-immunoprecipitation analysis; type: cell-based; conditions: dose 1-5 µM
[4] = molecular target: T1, Heat shock protein HSP90 (Homo sapiens); experiment: Covalent binding affinity to wildtype His-tagged C-terminal HSP90 (unknown origin) assessed as two phase melting curve at 100 uM incubated for 4 hrs by SYPRO fluorescent dye based thermal shift assay; type: protein assay
[5] = Tmax in male Sprague-Dawley rat at 5 mg/kg, ip by LC-MS/MS analysis; type: ADME, organism-based; conditions: in vivo
[6] = Apparent volume of distribution in male Sprague-Dawley rat at 1 mg/kg, iv by LC-MS/MS analysis; type: ADME, organism-based; conditions: in vivo, read-out: Vz
[7] = Selectivity ratio of IC50 for antiproliferative activity against CDC37 knockout human HCT-116 cells to IC50 for antiproliferative activity against human HCT-116 cells; type: functional
SK-BR-3 = experiment: Antiproliferative activity against human SK-BR-3 cells assessed as inhibition of cell proliferation incubated for 72 hrs by MTT assay; type: functional, cell-based; conditions: SK-BR-3, 72 h
[8] = Apparent volume of distribution in male Sprague-Dawley rat at 5 mg/kg, ip by LC-MS/MS analysis; type: ADME, organism-based; conditions: in vivo
[9] = AUC (0 to infinity) in male Sprague-Dawley rat at 5 mg/kg, ip by LC-MS/MS analysis; type: ADME, organism-based; conditions: in vivo
[10] = AUC (0 to infinity) in male Sprague-Dawley rat at 10 mg/kg, IG by LC-MS/MS analysis; type: ADME, organism-based; conditions: in vivo, po
HT-29 = experiment: Antiproliferative activity against human HT-29 cells assessed as inhibition of cell proliferation incubated for 72 hrs by MTT assay; type: functional, cell-based; conditions: HT-29, 72 h
[11] = Toxicity in female Balb/c nude mouse xenografted with human HCT-116 cells assessed as pathological changes in heart at 5 to 30 mg/kg, ip administered every two days for 14 days by H and E staining based analysis; type: organism-based; conditions: in vivo, 336 h, dose 5-30 mg/kg, time 14 day
HCT-116 [12] = experiment: Inhibition of Myc-tagged HSP90 (unknown origin)/HSF1 (unknown origin) protein-protein interaction transfected in human HCT-116 cells at 1 to 5 uM incubated for 12 hrs by co-immunoprecipitation analysis; type: cell-based; conditions: dose 1-5 µM
[13] = Toxicity in female Balb/c nude mouse xenografted with human HCT-116 cells assessed as effect on liver weight at 5 to 30 mg/kg, ip administered every two days for 14 days; type: organism-based; conditions: in vivo, 336 h, dose 5-30 mg/kg, time 14 day
[14] = Volume of distribution at steady state in male Sprague-Dawley rat at 1 mg/kg, iv by LC-MS/MS analysis; type: ADME, organism-based; conditions: in vivo, read-out: Vdss
[15] = Half-life in male Sprague-Dawley rat at 1 mg/kg, iv by LC-MS/MS analysis; type: ADME, organism-based; conditions: in vivo
[16] = Metabolic stability in human liver microsomes assessed as parent compound remaining at 1 uM preincubated for 5 mins followed by NADPH addition and measured after 30 mins by LC-MS/MS analysis; type: ADME, Microsome; conditions: time 35 min, read-out: Stability
[17] = molecular target: Heat shock protein HSP 90-alpha (Homo sapiens, UniProt P07900); experiment: Binding affinity to His-tagged HSP90alpha (unknown origin) assessed as dissociation constant by SPR analysis
Mus musculus [18] = experiment: Upregulation of HSP90 protein level in female Balb/c mouse tumor xenografted with human HCT-116 cells at 5 to 30 mg/kg, ip administered every two days for 14 days by Western blot analysis; type: functional, organism-based; conditions: dose 5-30 mg/kg, time 14.0 day
[19] = Apparent volume of distribution in male Sprague-Dawley rat at 10 mg/kg, IG by LC-MS/MS analysis; type: ADME, organism-based; conditions: in vivo, po
Mus musculus [20] = experiment: Upregulation of HSP70 protein level in female Balb/c mouse tumor xenografted with human HCT-116 cells at 5 to 30 mg/kg, ip administered every two days for 14 days by Western blot analysis; type: functional, organism-based; conditions: dose 5-30 mg/kg, time 14.0 day
[21] = AUC (0 to infinity) in male Sprague-Dawley rat at 1 mg/kg, iv by LC-MS/MS analysis; type: ADME, organism-based; conditions: in vivo
CT26 = experiment: Antiproliferative activity against mouse CT26 cells assessed as inhibition of cell proliferation incubated for 72 hrs by MTT assay; type: functional, cell-based; conditions: CT26, 72 h
[22] = Toxicity in female Balb/c nude mouse xenografted with human HCT-116 cells assessed as effect on heart weight at 5 to 30 mg/kg, ip administered every two days for 14 days; type: organism-based; conditions: in vivo, 336 h, dose 5-30 mg/kg, time 14 day
MCF7 = experiment: Antiproliferative activity against human MCF7 cells assessed as inhibition of cell proliferation incubated for 72 hrs by MTT assay; type: functional, cell-based; conditions: MCF7, 72 h
[23] = Tmax in male Sprague-Dawley rat at 1 mg/kg, iv by LC-MS/MS analysis; type: ADME, organism-based; conditions: in vivo
[24] = Toxicity in female Balb/c nude mouse xenografted with human HCT-116 cells assessed as effect on kidney weight at 5 to 30 mg/kg, ip administered every two days for 14 days; type: organism-based; conditions: in vivo, 336 h, dose 5-30 mg/kg, time 14 day
HCT-116 [25] = experiment: Upregulation of HSP90 level in human HCT-116 cells at 0.1 to 5 uM incubated for 24 hrs by Western blot analysis; type: functional, cell-based; conditions: dose 0.1-5 µM
HCT-116 [26] = experiment: Inhibition of Myc-tagged HSP90 C598A mutant (unknown origin)/CDC37 (unknown origin) protein-protein interaction transfected in human HCT-116 cells at 0.5 to 5 uM incubated for 12 hrs by co-immunoprecipitation analysis; type: cell-based; conditions: dose 0.5-5 µM
[27] = Cmax in male Sprague-Dawley rat at 10 mg/kg, IG by LC-MS/MS analysis; type: ADME, organism-based; conditions: in vivo, po
Mus musculus [28] = experiment: In vivo induction of CDK4 degradation in female Balb/c nude mouse xenografted with human HCT-116 cells assessed as decrease in CDK4 protein level in tumor at 5 to 30 mg/kg, ip administered every two days for 14 days by Western blot analysis; type: functional, organism-based; conditions: dose 5-30 mg/kg, time 14.0 day
HCT-116 [29] = experiment: Antiproliferative activity against CDC37 knockout human HCT-116 cells assessed as inhibition of cell proliferation incubated for 72 hrs by MTT assay; type: functional, cell-based; conditions: HCT-116, 72 h
[30] = Toxicity in female Balb/c nude mouse xenografted with human HCT-116 cells assessed as pathological changes in kidney at 5 to 30 mg/kg, ip administered every two days for 14 days by H and E staining based analysis; type: organism-based; conditions: in vivo, 336 h, dose 5-30 mg/kg, time 14 day
[31] = Half-life in male Sprague-Dawley rat at 5 mg/kg, ip by LC-MS/MS analysis; type: ADME, organism-based; conditions: in vivo
HCT-116 [32] = experiment: Inhibition of Myc-tagged HSP90 C598A mutant (unknown origin)/HSF1 (unknown origin) protein-protein interaction transfected in human HCT-116 cells at 1 to 5 uM incubated for 12 hrs by co-immunoprecipitation analysis; type: cell-based; conditions: dose 1-5 µM
[33] = Stability of compound in simulated intestinal fluid at 100 uM incubated for 12 hrs; type: physicochemical; conditions: simulated gi fluid

CL/F [1]: 12.2 mL/min/kg
Activity [2]: Active
Activity [4]: Active
Tmax [5]: 8.4 min
Vd [6]: 0.86 L/kg
IC50 (SK-BR-3): 1.99 µM
Vz [8]: 0.97 L/kg
AUC(0-inf) [9]: 6770 ng·h/mL
AUC(0-inf) [10]: 9810 ng·h/mL
IC50 (HT-29): 2.02 µM
Vd [14]: 0.52 L/kg
half-life [15]: 50.4 min
remaining at 0.5 h, 1 µM [16]: 64%
Kd [17]: 1.37 µM
Vz [19]: 3.18 L/kg
AUC(0-inf) [21]: 1460 ng·h/mL
IC50 (CT26): 1.97 µM
IC50 (MCF7): 2.34 µM
Tmax [23]: 1.02 min
Cmax [27]: 2400 ng/mL
IC50 (HCT-116 [29]): > 50 µM
half-life [31]: 82.2 min
Stability [33]: Stable
Structure (SMILES): O=S(=O)(/C=C/c1cn(-c2ccccc2)nc1-c1cccnc1)c1ccccc1
inhibition (HCT-116 [3]): Active
Ratio IC50 [7]: >50
Activity [11]: Non-toxic
inhibition (HCT-116 [12]): inactive
Activity [13]: Non-toxic
Activity (Mus musculus [18]): inactive
Activity (Mus musculus [20]): inactive
Activity [22]: Non-toxic
Activity [24]: Non-toxic
Activity (HCT-116 [25]): inactive
inhibition (HCT-116 [26]): inactive
Activity (Mus musculus [28]): Active
Activity [30]: Non-toxic
inhibition (HCT-116 [32]): inactive
